Columns and labels:
HepG2 = test: MTT assay, HepG2 cells; assay type: cell-based, human; conditions: Homo sapiens, HepG2, 72 h incubation, read-out: Half maximal inhibitory concentration (IC50) values, HepG2
Excerpt: The human hepatocellular carcinoma cell line (HepG2), human hepatocellular carcinoma cell line (Bel-7402), human cervical cancer cell line (Hela), human breast adenocarcinoma cell line (MCF-7) and Madin-Darby canine kidney cell line (MDCK) were obtained from the Chinese Academy of Medical Sciences and Peking Union Medical College. Cultures were maintained as monolayer in RPMI-1640/DMEM supplemented with 10% (v/v) fetal bovine serum (FBS) and 1% (v/v) penicillin/streptomycin (Thermo Technologies, New York, NY, United States) under a humidified atmosphere containing 5% CO2 at 37°C. The BoA derivatives and positive control drugs (BoA and DDP) under study were dissolved in DMSO (Sigma, St. Louis, MO, United States) and added at required concentrations to the cell culture. Cells incubated without the preparations served as the control.
The antitumor activity was assessed by MTT assay, as previously reported ([Fang et al., 2018]). Each tested compound and positive control drugs were dissolved in DMSO and diluted with the medium to the test concentrations, and the final concentration of DMSO in the culture medium was controlled at less than 0.5% (v/v). Briefly, cells were cultured at 37°C and dispersed in replicates in 96-well plates with HepG2, Bel-7402, HeLa, MCF-7 and MDCK for 24 h. Fresh medium along with compounds (BoAA-BoAE, BoA2A-BoA2G, BoA3A-BoA3G, BoA4A-BoA4G) at different concentrations was then added to individual wells and incubated for 72 h, with BoA and DDP as the positive control. Experiments on FXR expression were separated into three groups: Control (PBS), BoA2C (8 μM), and BoA2C (8 μM) + DY268 (10 μM) ([Giordano et al., 2016]), with three repeating wells in each. In separate wells, BoA2C and DY268 were introduced and cultured for 72 h. After 72 h, the cell was incubated with MTT solution (0.5 mg/ml) for an additional 4 h at 37°C. The produced formazan crystals were solubilized with DMSO, and the optical density of solution was measured at 570 nm using a plate reader (BIORAD 550 spectrophotometer, Bio-rad Life Science Development Ltd., Beijing, China). Wells without drugs were used to be blanks. The IC50 values were defined as the concentration of compounds that produced a 50% proliferation inhibition of surviving cells and calculated using the Graph Pad Prism 5. The inhibitory rate was calculated in the following Equation 1, where OD is the optical density: % inhibition=[1−(OD Sample group−OD Blank group)/(OD Control group−OD Blank group)]×100% (1)

MDCK cells = test: DAPI staining of nuclear changes, MDCK; assay type: cell-based, canine; conditions: MDCK cells, 2, 4, 8 μM

C=C(C)[C@@H]1CC[C@]2(C(=O)OCCOC(=O)c3cnc(C)cn3)CC[C@]3(C)[C@H](CC[C@@H]4[C@@]5(C)CCC(=O)C(C)(C)[C@@H]5CC[C@]43C)[C@@H]12 [BoA2C, (5-Methylpyrazin-2-acyloxy)-ethyl-3-oxolup-20(29)-en-28-oate]
IC50 (HepG2): 7.46 ± 1.43 µM | nuclear damage (DAPI staining) (MDCK cells): did not show a significant nuclear damage
